Results published in ChEMBL document CHEMBL1275440, “In vitro activity of telavancin against resistant gram-positive bacteria” (2008).
In brackets after ≈: the same amount, converted by molar mass. Activity calls are given as the source filed them. The rule behind the calls is not given here.

Assays:
Format in all cases: functional
[1] = system: Staphylococcus aureus; test: Antibacterial activity against methicillin resistant Staphylococcus aureus MED 2028 osteomyelitis isolate assessed as bacterial count at 2 ug/ml after 8 hrs by time-kill assay
[2] = system: Staphylococcus aureus; test: Antibacterial activity against methicillin resistant Staphylococcus aureus MED 2028 osteomyelitis isolate assessed as bacterial count at 1 ug/ml after 24 hrs by time-kill assay
[3] = system: Staphylococcus aureus; test: Antibacterial activity against methicillin resistant Staphylococcus aureus MED 2028 osteomyelitis isolate assessed as bacterial count at 1 ug/ml after 8 hrs by time-kill assay
[4] = system: Streptococcus agalactiae; test: Antibacterial activity against Streptococcus agalactiae MED 2038 by broth microdilution method
[5] = system: Staphylococcus aureus; test: Antibacterial activity against methicillin resistant Staphylococcus aureus MED 2028 osteomyelitis isolate by broth microdilution method
[6] = system: Staphylococcus aureus; test: Antibacterial activity against methicillin resistant Staphylococcus aureus clinical isolate assessed as susceptibility level by broth microdilution method
[7] = system: Enterococcus faecium; test: Antibacterial activity against vancomycin resistant Enterococcus faecium VanB clinical isolate by broth microdilution method
[8] = system: Enterococcus faecalis; test: Antibacterial activity against vancomycin resistant Enterococcus faecalis VanA clinical isolate by broth microdilution method
[9] = system: Streptococcus intermedius; test: Antibacterial activity against Streptococcus intermedius clinical isolate by broth microdilution method
[10] = system: Streptococcus pneumoniae; test: Antibacterial activity against penicillin resistant Streptococcus pneumoniae clinical isolate by broth microdilution method
[11] = system: Staphylococcus epidermidis; test: Antibacterial activity against methicillin resistant Staphylococcus epidermidis clinical isolate by broth microdilution method
[12] = system: Streptococcus pyogenes; test: Antibacterial activity against Streptococcus pyogenes MED 2040 assessed as bacterial count at […] after 4 hrs by time-kill assay
[13] = system: Streptococcus pyogenes; test: Antibacterial activity against Streptococcus pyogenes MED 2040 assessed as bacterial count at […] after 8 hrs by time-kill assay
[14] = system: Streptococcus pyogenes; test: Antibacterial activity against Streptococcus pyogenes MED 2040 assessed as bacterial count at 2 ug/ml after 2 hrs by time-kill assay
[15] = system: Streptococcus pyogenes; test: Antibacterial activity against Streptococcus pyogenes MED 2040 assessed as bacterial count at 2 ug/ml after 4 hrs by time-kill assay
[16] = system: Streptococcus pyogenes; test: Antibacterial activity against Streptococcus pyogenes MED 2040 assessed as bacterial count at 2 ug/ml after 24 hrs by time-kill assay
[17] = system: Streptococcus pyogenes; test: Antibacterial activity against Streptococcus pyogenes MED 2040 assessed as bacterial count at 8 ug/ml after 24 hrs by time-kill assay
[18] = system: Enterococcus faecalis; test: Antibacterial activity against Enterococcus faecalis ATCC 51575 assessed as bacterial count at 2 ug/ml after 2 hrs by time-kill assay
[19] = system: Enterococcus faecalis; test: Antibacterial activity against Enterococcus faecalis ATCC 51575 assessed as bacterial count at 2 ug/ml after 4 hrs by time-kill assay
[20] = system: Enterococcus faecalis; test: Antibacterial activity against Enterococcus faecalis ATCC 51575 assessed as bacterial count at 4 ug/ml after 2 hrs by time-kill assay
[21] = system: Enterococcus faecalis; test: Antibacterial activity against Enterococcus faecalis ATCC 51575 assessed as bacterial count at 8 ug/ml after 4 hrs by time-kill assay
[22] = system: Enterococcus faecalis; test: Antibacterial activity against Enterococcus faecalis ATCC 51575 assessed as bacterial count at 8 ug/ml after 8 hrs by time-kill assay
[23] = system: Streptococcus agalactiae; test: Antibacterial activity against Streptococcus agalactiae MED 2038 assessed as bacterial count at 8 ug/ml after 24 hrs by time-kill assay
[24] = system: Streptococcus agalactiae; test: Antibacterial activity against Streptococcus agalactiae MED 2038 assessed as bacterial count at 2 ug/ml after 4 hrs by time-kill assay
[25] = system: Streptococcus agalactiae; test: Antibacterial activity against Streptococcus agalactiae MED 2038 assessed as bacterial count at 0.5 ug/ml after 24 hrs by time-kill assay
[26] = system: Streptococcus agalactiae; test: (§1) Antibacterial activity against Streptococcus agalactiae MED 2038 assessed as bacterial count at […] after 8 hrs by time-kill assay
[27] = system: Streptococcus agalactiae; test: (§2) Antibacterial activity against Streptococcus agalactiae MED 2038 assessed as bacterial count at […] after 2 hrs by time-kill assay
[28] = system: Streptococcus agalactiae; test: as §1; remark: listed apart in the source
[29] = system: Streptococcus agalactiae; test: as §2; remark: listed apart in the source
[30] = system: Streptococcus pneumoniae; test: Antibacterial activity against multidrug resistant Streptococcus pneumoniae MED 1090 assessed as bacterial count at 2 ug/ml after 8 hrs by time-kill assay
[31] = system: Streptococcus pneumoniae; test: Antibacterial activity against multidrug resistant Streptococcus pneumoniae MED 1090 assessed as bacterial count at 2 ug/ml after 2 hrs by time-kill assay
[32] = system: Streptococcus pneumoniae; test: Antibacterial activity against multidrug resistant Streptococcus pneumoniae MED 1090 assessed as bacterial count at […] after 8 hrs by time-kill assay
[33] = system: Streptococcus pneumoniae; test: Antibacterial activity against multidrug resistant Streptococcus pneumoniae MED 1090 assessed as bacterial count at […] after 2 hrs by time-kill assay
[34] = system: Streptococcus pneumoniae; test: Antibacterial activity against multidrug resistant Streptococcus pneumoniae MED 1090 assessed as bacterial count at 0.03 ug/ml after 8 hrs by time-kill assay
[35] = system: Streptococcus pneumoniae; test: Antibacterial activity against multidrug resistant Streptococcus pneumoniae MED 1090 assessed as bacterial count at 0.03 ug/ml after 4 hrs by time-kill assay
[36] = system: Streptococcus pneumoniae; test: Antibacterial activity against multidrug resistant Streptococcus pneumoniae MED 1090 assessed as bacterial count at 0.03 ug/ml after 2 hrs by time-kill assay
[37] = system: Staphylococcus epidermidis; test: Antibacterial activity against methicillin resistant Staphylococcus epidermidis ATCC 35984 assessed as bacterial count at 16 ug/ml after 2 hrs by time-kill assay
[38] = system: Staphylococcus epidermidis; test: Antibacterial activity against methicillin resistant Staphylococcus epidermidis ATCC 35984 assessed as bacterial count at 8 ug/ml after 24 hrs by time-kill assay
[39] = system: Staphylococcus epidermidis; test: Antibacterial activity against methicillin resistant Staphylococcus epidermidis ATCC 35984 assessed as bacterial count at 4 ug/ml after 4 hrs by time-kill assay
[40] = system: Staphylococcus epidermidis; test: Antibacterial activity against methicillin resistant Staphylococcus epidermidis ATCC 35984 assessed as bacterial count at 2 ug/ml after 24 hrs by time-kill assay
[41] = system: Staphylococcus aureus; test: Antibacterial activity against methicillin resistant Staphylococcus aureus MED 1805 bloodstream isolate assessed as bacterial count at 1 ug/ml after 24 hrs by time-kill assay
[42] = system: Staphylococcus aureus; test: Antibacterial activity against methicillin resistant Staphylococcus aureus MED 1805 bloodstream isolate assessed as bacterial count at 1 ug/ml after 8 hrs by time-kill assay
[43] = system: Staphylococcus aureus; test: Antibacterial activity against methicillin resistant Staphylococcus aureus MED 1805 bloodstream isolate assessed as bacterial count at 1 ug/ml after 4 hrs by time-kill assay
[44] = system: Staphylococcus aureus; test: Antibacterial activity against methicillin resistant Staphylococcus aureus MED 2028 osteomyelitis isolate assessed as bacterial count at 8 ug/ml after 2 hrs by time-kill assay
[45] = system: Staphylococcus aureus; test: Antibacterial activity against methicillin resistant Staphylococcus aureus MED 2028 osteomyelitis isolate assessed as bacterial count at 4 ug/ml after 24 hrs by time-kill assay

CCCCCCCCCCNCCN[C@@]1(C)C[C@H](O[C@H]2[C@H](Oc3c4cc5cc3Oc3ccc(cc3Cl)[C@@H](O)[C@@H](NC(=O)[C@@H](CC(C)C)NC)C(=O)N[C@@H](CC(N)=O)C(=O)N[C@H]5C(=O)N[C@H]3C(=O)N[C@H](C(=O)N[C@H](C(=O)O)c5cc(O)c(CNCP(=O)(O)O)c(O)c5-c5cc3ccc5O)[C@H](O)c3ccc(c(Cl)c3)O4)O[C@H](CO)[C@@H](O)[C@@H]2O)O[C@@H](C)[C@H]1O [TELAVANCIN]
log10CFU/ml [1]: 3.1 | log10CFU/ml [2]: 2.1 | log10CFU/ml [3]: 3.4 | MIC [4]: 0.06 µg/mL (≈ 0.0342 µM) | MIC [5]: 0.5 µg/mL (≈ 0.285 µM) | Activity [6]: 100% | MIC50 [7]: 0.5 µg/mL (≈ 0.285 µM) | MIC90 [7]: 2 µg/mL (≈ 1.14 µM) | MIC50 [8]: 8 µg/mL (≈ 4.56 µM) | MIC90 [8]: 16 µg/mL (≈ 9.11 µM) | MIC [9]: 0.015 µg/mL (≈ 0.00854 µM) | MIC50 [9]: inactive | MIC90 [9]: inactive | MIC50 [10]: 0.015 µg/mL (≈ 0.00854 µM) | MIC90 [10]: 0.03 µg/mL (≈ 0.0171 µM) | MIC50 [11]: 0.5 µg/mL (≈ 0.285 µM) | MIC90 [11]: 1 µg/mL (≈ 0.57 µM) | log10CFU/ml [12]: 1.8 | log10CFU/ml [13]: 2.5 | log10CFU/ml [14]: 1.8 | log10CFU/ml [15]: 2.7 | log10CFU/ml [16]: 3.1 | log10CFU/ml [17]: 2.7 | log10CFU/ml [18]: 0.5 | log10CFU/ml [19]: 0.5 | log10CFU/ml [20]: 0.5 | log10CFU/ml [21]: 0.2 | log10CFU/ml [22]: 0.5 | log10CFU/ml [23]: 3.7 | log10CFU/ml [24]: 0.8 | log10CFU/ml [25]: 3.6 | log10CFU/ml [26]: 1.6 | log10CFU/ml [27]: 1 | log10CFU/ml [28]: 2.3 | log10CFU/ml [29]: 1 | log10CFU/ml [30]: 3.4 | log10CFU/ml [31]: 1.8 | log10CFU/ml [32]: 3.3 | log10CFU/ml [33]: 1.1 | log10CFU/ml [34]: 3.4 | log10CFU/ml [35]: 2.7 | log10CFU/ml [36]: 1.1 | log10CFU/ml [37]: 0.5 | log10CFU/ml [38]: 3.3 | log10CFU/ml [39]: 1.8 | log10CFU/ml [40]: 3.1 | log10CFU/ml [41]: 2.7 | log10CFU/ml [42]: 3.2 | log10CFU/ml [43]: 1.8 | log10CFU/ml [44]: 0.4 | log10CFU/ml [45]: 3.4
